The values that follow are results of earlier work, collected in patent US20070083941A1, “Rat TRPM7 polynucleotide and encoded protein” (Wyeth, priority 2005, published 2007).

The structures appear in SMILES notation. pIC50: −log10 of the molar value.

This data set concerns the target TRPM7 (Homo sapiens, UniProt Q96QT4). The note with it: high concentrations of intracellular MgATP and Mg^2+; basal activity of TRPM7; read-out: IC50 of inhibition of TRPM7.

Sequence of TRPM7 (Q96QT4 whole entry, species assumed): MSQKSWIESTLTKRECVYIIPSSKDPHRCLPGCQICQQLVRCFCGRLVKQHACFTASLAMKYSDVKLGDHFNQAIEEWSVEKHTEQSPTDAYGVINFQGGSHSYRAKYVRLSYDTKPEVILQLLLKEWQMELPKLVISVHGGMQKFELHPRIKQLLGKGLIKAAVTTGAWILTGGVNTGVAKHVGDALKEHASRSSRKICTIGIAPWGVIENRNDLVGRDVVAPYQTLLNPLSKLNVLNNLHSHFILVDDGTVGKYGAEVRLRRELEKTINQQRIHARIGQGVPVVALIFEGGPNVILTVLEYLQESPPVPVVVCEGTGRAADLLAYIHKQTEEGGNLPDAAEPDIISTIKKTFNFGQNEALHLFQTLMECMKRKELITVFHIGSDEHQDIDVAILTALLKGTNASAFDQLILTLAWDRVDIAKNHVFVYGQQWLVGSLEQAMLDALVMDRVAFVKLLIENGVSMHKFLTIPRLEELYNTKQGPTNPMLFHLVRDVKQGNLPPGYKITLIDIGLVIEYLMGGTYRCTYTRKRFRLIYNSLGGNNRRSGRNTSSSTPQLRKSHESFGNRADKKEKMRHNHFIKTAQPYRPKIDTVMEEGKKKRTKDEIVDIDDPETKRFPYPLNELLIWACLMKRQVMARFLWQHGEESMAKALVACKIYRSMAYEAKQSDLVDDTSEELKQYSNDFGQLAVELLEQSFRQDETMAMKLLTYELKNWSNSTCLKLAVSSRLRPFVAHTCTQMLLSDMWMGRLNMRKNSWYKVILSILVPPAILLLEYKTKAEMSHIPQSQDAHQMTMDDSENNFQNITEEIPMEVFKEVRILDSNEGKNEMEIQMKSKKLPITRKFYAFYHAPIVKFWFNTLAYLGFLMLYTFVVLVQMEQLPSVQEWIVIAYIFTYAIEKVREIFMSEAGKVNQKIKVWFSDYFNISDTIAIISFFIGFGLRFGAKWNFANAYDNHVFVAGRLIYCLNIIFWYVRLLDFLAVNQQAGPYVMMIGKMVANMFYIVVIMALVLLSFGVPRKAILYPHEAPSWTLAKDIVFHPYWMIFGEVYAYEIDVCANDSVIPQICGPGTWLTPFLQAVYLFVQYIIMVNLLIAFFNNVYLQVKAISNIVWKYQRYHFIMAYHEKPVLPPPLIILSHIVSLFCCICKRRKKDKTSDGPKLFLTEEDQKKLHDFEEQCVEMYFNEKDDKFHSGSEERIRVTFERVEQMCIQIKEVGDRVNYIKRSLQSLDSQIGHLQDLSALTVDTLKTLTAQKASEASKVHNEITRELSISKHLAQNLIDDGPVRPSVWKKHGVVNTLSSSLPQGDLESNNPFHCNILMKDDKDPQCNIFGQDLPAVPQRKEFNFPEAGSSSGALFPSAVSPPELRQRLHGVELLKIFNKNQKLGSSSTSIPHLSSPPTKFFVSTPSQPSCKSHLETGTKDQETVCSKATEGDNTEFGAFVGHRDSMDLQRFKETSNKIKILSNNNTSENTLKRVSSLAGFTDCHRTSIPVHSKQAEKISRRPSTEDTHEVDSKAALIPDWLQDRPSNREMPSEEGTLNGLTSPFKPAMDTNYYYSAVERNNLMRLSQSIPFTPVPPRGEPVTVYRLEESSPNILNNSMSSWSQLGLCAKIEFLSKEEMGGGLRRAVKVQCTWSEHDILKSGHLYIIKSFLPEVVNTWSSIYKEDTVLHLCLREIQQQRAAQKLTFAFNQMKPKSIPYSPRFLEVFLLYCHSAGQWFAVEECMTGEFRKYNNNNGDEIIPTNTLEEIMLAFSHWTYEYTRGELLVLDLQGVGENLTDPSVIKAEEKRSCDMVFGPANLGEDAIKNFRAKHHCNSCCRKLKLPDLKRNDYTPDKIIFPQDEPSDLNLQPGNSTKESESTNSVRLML

In general, pIC50 refers to −log10 of the IC50, conventionally taken in molar units. `Nc1ncnc2c1ncn2[C@@H]1O[C@H](COP(=O)(O)OP(=O)(O)OP(=O)(O)O)[C@@H](O)[C@H]1O` [MgATP]: the pIC50 is approximately 3.22.

For `[Mg+2]` [Mg^2+], the pIC50 is approximately 3.22.
